Assay results: patent US10220024B2, “Method of inhibiting cancer cell, method for detecting cancer cell, and system for detecting cancer cell” (CANON KABUSHIKI KAISHA, priority 2012, dated 2019)
Where two headings read alike, the source gives them in different places.

Experiments:
[1] = tested on: K562 ALDH (−) fraction (general cancer cells); assay: Cancer stem-cell selective inhibitory action against chronic myelocytic leukemia cells, ALDH (−) fraction, CellTiter-Glo; type: cell-based, Human; conditions: Homo sapiens, 24 hours, relative to 0.1% DMSO, read-out: ALDH(−) (growth rate); for activity at 10 µg/mL: 10 μg/ml; for activity at 1 µg/mL: 1 μg/mL
Description: (§1) Human chronic myelocytic leukemia cells, K562, were pre-cultured in RPMI1640 medium containing 10% FBS at 37° C. in a 5% CO2 ambient. Then, a fraction containing 80% or more of cancer stem cells was extracted by use of ALDEFLUOR reagent (manufactured by VERITAS Corporation) and FACSAria flow cytometry (manufactured by Nippon Becton, Dickinson and Company). Subsequently, Compound (5) was added to the medium so as to obtain a final concentration of 10 μg/mL and cultured at 37° C. for 24 hours in a 5% CO2 ambient. The cultured cells were analyzed for viable cell count according to CellTiter-Glo Luminescent Cell Viability Assay (manufactured by Promega KK.). As a reference, the number of cells cultured in a medium containing a 0.1% dimethylsulfoxide solution (hereinafter, simply referred to as DMSO) in place of a medium containing Compound (1), in the aforementioned operation, was used as 0.1. Note that hereinafter, an ALDEFLUOR reagent positive fraction (deemed as cancer stem cells) is represented by ALDH (+), whereas an ALDEFLUOR reagent negative fraction (not deemed as cancer stem cells) is represented by ALDH (−), in some cases.
(§2) The same operation as in Experimental Example 12 was repeated except that Compound (5) in Experimental Example 12 was changed to the compounds shown in Table 4 and final concentrations shown in Table 4 were used and viable cell counts were separately analyzed. Note that the growth rate in Examples herein is a numerical value of the number of cells obtained after culture relative to the number of cells (regarded as 0.1) grown in a medium containing 0.1% DMSO.
(§3) The same operation as in Experimental Example 12 was repeated except that Compound (5) in Experimental Example 12 was changed to Imatinib (manufactured by NOVARTIS), which is a general anticancer drug, and comparative compounds shown in Table 4 and final concentrations shown in Table 4 were used and viable cell counts were separately analyzed.
(§4) The growth suppressive effect of cancer stem cells was evaluated based on the following criteria. Note that the growth rate in Examples herein is a numerical value relative to the number of cells (regarded as 0.1) grown in a medium containing 0.1% DMSO. • A: The value of ALDH (+) is less than 0.5 (growth suppressive effect against cancer stem cells is extremely high) • B: The value of ALDH (+) is 0.5 or more and less than 0.95 (growth suppressive effect against cancer stem cells is high) • C: The value of ALDH (+) is 0.95 or more (no growth suppressive effect against cancer stem cells)
(§5) Furthermore, superiority of cancer stem cells was evaluated by comparing cancer stem cells to cancer cells based on the following criteria. ALDH (+) represents cancer stem cells; whereas ALDH (−) represents general cancer cells. • A: The value of ALDH (+)/ALDH (−) is less than 0.8 (selective inhibitory effect against cancer stem cells is extremely high) • B: The value of ALDH (+)/ALDH (−) is 0.8 or more and less than 0.95 (selective inhibitory effect against cancer stem cells is high) • C: The value of ALDH (+)/ALDH (−) is 0.95 or more (no selective inhibitory effect against cancer stem cells)

[2] = Measurement of fluorescent property of compound (spectrofluorometer); type: physicochemical; conditions: 5 μM DMSO solution
Description: The excitation wavelength and fluorescence wavelength of the compound were measured by a FL4500 spectrofluorometric measuring machine manufactured by Hitachi High-Technologies Corporation.

[3] = tested on: K562 ALDH (+) fraction (cancer stem cells); assay: Cancer stem-cell selective inhibitory action against chronic myelocytic leukemia cells, ALDH (+) fraction, CellTiter-Glo; type: cell-based; conditions: Homo sapiens, 24 hours; for activity at 10 µg/mL: 10 μg/ml; for activity at 1 µg/mL: 1 μg/mL
Description: as §1, §2, §3, §4, §5

[4] = read-out: Growth suppression evaluated
[5] = relative to 0.1% DMSO, read-out: ALDH(+) (growth rate)

Excitation wavelength λex [2] [nm]	Fluorescence wavelength λem [2] [nm]	Structure (SMILES)	activity at 10 µg/mL [1] [%]	activity at 10 µg/mL [3, 4] [%]	activity at 10 µg/mL [3, 5] [%]	activity at 1 µg/mL [1] [%]	activity at 1 µg/mL [3, 4] [%]	activity at 1 µg/mL [3, 5] [%]
591	626	CCN1c2ccc(/C=C/C3=[N+](C)c4ccc5ccccc5c4C3(C)C)cc2C2CCCC21 (centres unmarked) [Compound 39]	13	< 50	6	–	–	–
592	671	COc1ccc(N2c3ccc(/C=C/C4=[N+](CCC(=O)O)c5ccccc5C4(C)C)cc3C3CCCC32)cc1 (centres unmarked) [Compound 32]	90	50 to 95	78	–	–	–
560	677	COc1ccc(N2c3ccc(/C=C/c4sc5ccccc5[n+]4CC(=O)O)cc3C3CCCC32)cc1 (centres unmarked) [Compound 33]	101	50 to 95	90	–	–	–
–	–	O=C(O)Cn1c(=O)/c(=C\c2ccc3c(c2)C2CCCC2N3c2ccccc2)s/c1=C1/SC(=S)N(Cc2ccccc2)C1=O (centres unmarked) [compound 5, reference compound]	90	≥ 95	107	97	≥ 95	106
575	611	CCN1c2ccc(/C=C/C3=[N+](C)c4ccccc4C3(C)C)cc2C2CCCC21 (centres unmarked) [Compound 34]	24	< 50	17	–	–	–
573	670	COc1ccc(N2c3ccc(/C=C/C4=[N+](C)c5ccccc5C4(C)C)cc3C3CCCC32)cc1 (centres unmarked) [Compound 38]	11	< 50	5	–	–	–
488	594	CCn1c2ccccc2c2cc(/C=C/C3=[N+](C)c4ccccc4C3(C)C)ccc21 [Compound 36]	20	< 50	13	–	–	–
611	720	CC1(C)C(/C=C/c2ccc3c(c2)C2CCCC2N3c2ccc(C=C(c3ccccc3)c3ccccc3)cc2)=[N+](CCC(=O)O)c2ccccc21 (centres unmarked) [Compound 31]	–	–	–	–	–	–
–	–	CCn1c2ccccc2c2cc(/C=C/C3=[N+](C)c4ccc5ccccc5c4C3(C)C)ccc21 [Compound 40]	13	< 50	6	85	50 to 95	73
